Results taken from patent publication US11723946B2, “Methods for regulating transcription of multiple genes and expression of multiple targets” (CHINA MEDICAL UNIVERSITY, priority 2014, dated 2023).

Tests used:
NF-κB [1] = assay: Ex vivo bioluminescent imaging of organs, LPS-induced NF-κB/luc transgenic mice; type: in vivo; details: group 2 (LPS IP) vs group 1 (PBS blank); up-regulation
Procedure: The mice of the three groups manipulated in example 3 were abdominally injected with 150 mg/Kg luciferin. After luciferin injection for 5 minutes, the mice were sacrificed and the tissues including brain, heart, lung, liver, spleen, stomach, kidney, ovary and intestine were rapidly removed. The collected tissues were placed in the IVIS Imaging System-200 Series (Xenogen, Hopkinton, Mass.) and imaged with the same setting used for in vivo bioluminescent imaging.
In the table 2, the average of luciferin value in the mice of the group 2 was divided to average of luciferin value in the mice of the group 1 to obtain the fold change. In table 3, the average of luciferin value in the mice of the group 3 was divided to the average of luciferin value in the mice of the group 2 to obtain the fold change.

NF-κB [2] = assay: Whole animal bioluminescent imaging, LPS-induced NF-κB/luc transgenic mice; type: in vivo
Description: Mice: The NF-κB/luc transgenic mice bearing the luciferase transgene driven by two copies of the NF-kappaB regulatory elements were mated with wild-type FVB mice to generate the hybrid NF-κB/luc transgenic offspring for the experiments. Whole animal bioluminescent imaging: 15 mice with age of 6˜8 weeks were randomly divided into three groups. The group 1 was the blank group; the group 2 was control group; and the group 3 was experimental group. The mice of the group 2 and the group 3 were administration with 100 ul of […] lipopolysaccharide (LSP) solution to induce the inflammation in the mice by intraperitoneal injection (IP injection). As the blank control, the mice of group 1 were administered with 100 μl of PBS by IP injection. After the LPS-injection for 5 minutes, the mice of the group 3 were further injected with 20 μl solution that contains 0.5 mg/Kg of the present polypeptide by IP injection. In contrast, the mice of the group 2 and the […] were injected with 20 μul of water. […] For in vivo imaging mice were anesthetized with isoflurane and injected intraperitoneally with 150 mg/kg luciferin. After 10 minutes, the mice were placed face up and imaged for 1 min with the camera set at the highest sensitivity by IVIS Imaging System-200 (Series Xenogen Hopkinton, Mass.). The photons emitted from the tissues were quantified by Living Images software (Xenogen, Hopkinton, Mass.) and were shown in FIG. 4A. In the FIG. 4A, the Y-axis shown the signal strength (photons/sec) that stands for total photons diffused from the mice.

Q: For “lipopolysaccharide [LPS, reference compound]”, which “Fold change of the luciferin value, Brain” value (NF-κB [1]) is on record?
A: Its value is 18.87 folds.

Q: What about the “Fold change of the luciferin value, Heart” value (NF-κB [1]) of the same substance?
A: The value was 6.03 folds.

Q: And the “Fold change of the luciferin value, Intestine” value (NF-κB [1])?
A: Its value is 55.63 folds.

Q: And the “Fold change of the luciferin value, Kidney” value (NF-κB [1])?
A: The value was 93.78 folds.

Q: What about the “Fold change of the luciferin value, Liver” value (NF-κB [1]) of the same substance?
A: The value was 4.06 folds.

Q: What about the “Fold change of the luciferin value, Lung” value (NF-κB [1]) of the same substance?
A: Its value is 11.90 folds.

Q: What about the “Fold change of the luciferin value, Ovary” value (NF-κB [1]) of the same substance?
A: The value was 5.35 folds.

Q: And the “Fold change of the luciferin value, Spleen” value (NF-κB [1])?
A: The value was 5.57 folds.

Q: What about the “Fold change of the luciferin value, Stomach” value (NF-κB [1]) of the same substance?
A: Its value is 4.95 folds.

Q: And the “increase of NF-κB-driven luminescent intensity” value (NF-κB [2]; LPS group vs blank group)?
A: Its value is “approximately 10.95 fold”.

Q: And the “average of luciferin value” (NF-κB [2]; group 2: LPS IP + water, 4 hours, blank group 1 2.92×10^7)?
A: Its value is 31.97×10^7 photons/sec.
